{"source": "patent US9714424B1", "about": "“RNAi inhibition of USP10 to treat ocular disorders” (ICAHN SCHOOL OF MEDICINE AT MOUNT SINAI, priority 2014, dated 2017)", "key": {"[1]": {"system": "αv integrins αvβ1, β3, β5", "assay": "TGFβ activity assay, htert-SMAD reporter cells co-cultured with htert-USP10 cells, αv integrin blocking", "type": "cell-based, human", "details": "100 nM, compared to control small molecule CWHM96", "protocol": "TGFβ activity was measured using cell lines constitutively expressing pGreenFire Lenti-Reporter (System Biosciences) a reporter for SMAD activation. This reporter was used to generate TGFβ reporter cell lines with htert fibroblasts (htert-SMAD) and 293t cells (293t-SMAD). To assess TGFβ activity with USP10 overexpression, 50K Htert-SMAD cells were co-cultured with 50K cells constitutively overexpressing USP10 (htert-USP10) or control cells (htert cells expressing empty vector, htert-vector cells). After 24 hours, cells were removed with trypsin, pelleted, re-suspended in luciferase reagent, placed in wells in triplicate, and assayed for luciferase expression. To assess TGFβ activity when USP10 was silenced, USP10 and control siRNA were transiently transfected in 293t-SMAD cells and assayed as above. To assess TGFβ activity when av integrins were blocked, USP10 cells were treated with intergrin αv blocking small molecule or matched control small molecule and assayed as above.\nIt was previously reported that integrin αvβ5 directly activates TGFβ in myofibroblasts. […] First we confirmed that the htert-HCF line had low (undetectable) endogenous TGFβ activity so that the induction of TGFβ activity by USP10 could be quantified (data not shown). […] The next day, cells were lysed and luciferase substrate (Brightglo) was added prior to quantification of luciferase activity in each sample. […]"}, "USP10 expression": {"system": "USP10 expression", "assay": "USP10 protein expression in HCFs treated with TGFβ or TGFβ inhibitor", "type": "cell-based, human", "text": "Porcine corneas with scleral rims were mounted on an agarose/collagen base without wounding (control corneas) or after wounding through the anterior stroma with a trephine (wounded corneas). A-H immunostaining of paraffin embedded corneal slices comparing control to 2 weeks post-wounding. Compared to control fibrotic markers increased in the anterior stroma after wounding: (A, B) α-SMA 2.9-fold+/−0.8 ***p<0.005, (C) No primary antibody control, (D, E) USP10 2.5-fold+/−0.8 **p<0.01, and F) Pre-incubation with a USP10 blocking peptide reduced immunostaining. Bar=50 um. (G) Western blot of human and porcine primary epithelial cells (Epi) and stromal cells (Fibro).\nSince TGFβ plays an important role in all wounding and fibrotic disease, we tested if TGFβ induced the expression of USP10. In the remaining cell culture studies unless otherwise noted, fibroblasts that have been passaged in serum-containing media are detached and plated on type I collagen in supplemented-serum free media (SSFM). In FIG. 4H, primary human corneal fibroblasts (HCFs) were treated with 1 ng/ml TGFβ for 2 days. TGFβ increased USP10 expression by 57% as compared to no treatment."}}}
{"compound": "CC(C)(C)c1cc(Br)cc([C@H](CC(=O)O)NC(=O)CNC(=O)c2cc(O)cc(NC3=NCC(O)CN3)c2)c1", "note": "(stereo partly drawn) [CWHM12]", "values": [{"measurement": "USP10-mediated TGFβ activity, reduction", "setting": "[1]", "result": 63, "unit": "%+/−6%"}]}
{"compound": "NC(=O)c1ccc(-c2nc(-c3ccc4c(c3)OCO4)c(-c3ccccn3)[nH]2)cc1", "note": "[SB431542]", "values": [{"measurement": "USP10 expression, decrease", "setting": "USP10 expression; blocking TGFβ-induced SMAD2/3 signaling", "result": 44, "unit": "%"}]}
{"compound": "TGFβ: fibrotic growth factor, added at 1 ng/ml to HCFs", "values": [{"measurement": "USP10 expression, increase", "setting": "USP10 expression; 1 ng/ml for 2 days, compared to no treatment", "result": 57, "unit": "%"}]}
